From ChEMBL document CHEMBL1153555, “Molecular mechanism of target recognition by subtilin, a class I lanthionine antibiotic” (Antimicrob Agents Chemother, 2008) come the findings set out here.

Converted amounts (≈) assume the structure as drawn.

Data set [1] in a line: Permeability across Micrococcus luteus ATCC 4698 lipid II-containing unilamellar vesicle of 1,2-dioleoyl-sn-gltcero-3-phosphocholine and 1,2-dioleoyl-sn-glycero-3-phosphoglycerol assessed as partial leakage after disintegration of vesicles at lower concentration by carboxyfluorescein leakage assay. The data set is classed as ADME.
The test system of a further data set is Lactococcus lactis. Put plainly: Antibacterial activity against Lactococcus lactis MG1614 by disk diffusion assay. The data set is classed as functional. On the technique in general: Agar diffusion results depend on both activity and mobility in agar.

In general, MIC refers to the lowest concentration that inhibits growth of the organism. Low values mean greater potency, high ones weaker potency.

`C=C(NC(=O)[C@@H](NC(=O)[C@H](CCCCN)NC(=O)[C@@H]1CS[C@@H](C)[C@H]2NC(=O)[C@H](CC(C)C)NC(=O)[C@H](NC(=O)[C@H](CCC(N)=O)NC(=O)[C@H](CC(C)C)NC(=O)[C@H](Cc3ccccc3)NC(=O)[C@@H]3CS[C@@H](C)[C@@H](NC(=O)[C@@H](NC(=O)[C@@H]4CS[C@@H](C)[C@@H](NC(=O)[C@@H]5CSC[C@@H](NC(=O)[C@H](CCCCN)NC(=O)[C@@H](N)Cc6c[nH]c7ccccc67)C(=O)N[C@@H](CCC(=O)O)C(=O)NC(=C)C(=O)N[C@@H](CC(C)C)C(=O)N5)C(=O)N5CCC[C@H]5C(=O)NCC(=O)N4)C(C)C)C(=O)NCC(=O)N[C@@H](C)C(=O)N[C@@H](CC(C)C)C(=O)N[C@@H](CCC(N)=O)C(=O)N/C(=C\C)C(=O)N3)[C@H](C)SC[C@H](NC2=O)C(=O)N[C@@H](CC(N)=O)C(=O)N1)[C@@H](C)CC)C(=O)N[C@@H](CCCCN)C(=O)O` [SUBTILIN]: the permeability in data set [1] is reported as 20%.
In the data set with Lactococcus lactis, `C=C1NC(=O)CC[C@@H](C(=O)O)NC(=O)[C@H](NC(=O)[C@H](CCCCN)NC(=O)[C@@H](N)Cc2c[nH]c3ccccc23)CSC[C@@H](C(=O)N[C@@H]2C(=O)N3CCC[C@H]3C(=O)NCC(=O)N[C@H](C(=O)N[C@H](C(=O)N[C@@H]3C(=O)NCC(=O)N[C@@H](C)C(=O)N[C@@H](CC(C)C)C(=O)N[C@@H](CCC(N)=O)C(=O)N/C(=C/C)C(=O)N[C@H](C(=O)N[C@@H](Cc4ccccc4)C(=O)N[C@@H](CC(C)C)C(=O)N[C@@H](CCC(N)=O)C(=O)N[C@@H]4C(=O)N[C@@H](CC(C)C)C(=O)N[C@H]5C(=O)N[C@@H](CSC4C)C(=O)NC(=O)[C@H](CC(N)=O)N[C@H](C(=O)N[C@@H](CCCCN)C(=O)N[C@H](C(=O)NC(=C)C(=O)N[C@@H](CCCCN)C(=O)O)[C@@H](C)CC)CSC5C)CSC3C)C(C)C)CSC2C)N[C@@H](CC(C)C)C(=O)NC1=O` (stereo not given in full) [SUBTILIN] registered an MIC of 1.13 µg/mL (≈ 0.34 µM).
On the same count and under the same terms, in the case of `C=C(NC(=O)[C@@H](NC(=O)[C@H](CCCCN)NC(=O)[C@@H]1CS[C@@H](C)[C@H]2NC(=O)[C@H](CC(C)C)NC(=O)[C@H](NC(=O)[C@H](CCC(N)=O)NC(=O)[C@H](CC(C)C)NC(=O)[C@H](Cc3ccccc3)NC(=O)[C@@H]3CS[C@@H](C)[C@@H](NC(=O)[C@@H](NC(=O)[C@@H]4CS[C@@H](C)[C@@H](NC(=O)[C@@H]5CSC[C@@H](NC(=O)[C@H](CCCCN)NC(=O)[C@H](Cc6c[nH]c7ccccc67)NC(=O)CCC(=O)O)C(=O)N[C@@H](CCC(=O)O)C(=O)NC(=C)C(=O)N[C@@H](CC(C)C)C(=O)N5)C(=O)N5CCC[C@H]5C(=O)NCC(=O)N4)C(C)C)C(=O)NCC(=O)N[C@@H](C)C(=O)N[C@@H](CC(C)C)C(=O)N[C@@H](CCC(N)=O)C(=O)N/C(=C\C)C(=O)N3)[C@H](C)SC[C@H](NC2=O)C(=O)N[C@@H](CC(N)=O)C(=O)N1)[C@@H](C)CC)C(=O)N[C@@H](CCCCN)C(=O)O` it was 19.2 µg/mL (≈ 5.6 µM); in that of `C=C1NC(=O)CC[C@@H](C(=O)O)NC(=O)[C@H](NC(=O)[C@H](CCCCN)NC(=O)[C@@H](N)Cc2c[nH]c3ccccc23)CSC[C@@H](C(=O)N[C@@H]2C(=O)N3CCC[C@H]3C(=O)NCC(=O)N[C@H](C(=O)N[C@H](C(=O)N[C@@H]3C(=O)NCC(=O)N[C@@H](C)C(=O)N[C@@H](CC(C)C)C(=O)N[C@@H](CCC(N)=O)C(=O)N/C(=C/C)C(=O)N[C@H](C(=O)N[C@@H](Cc4ccccc4)C(=O)N[C@@H](CC(C)C)C(=O)N[C@@H](CCC(N)=O)C(=O)N[C@@H]4C(=O)N[C@@H](CC(C)C)C(=O)N[C@H]5C(=O)N[C@@H](CSC4C)C(=O)NC(=O)[C@H](CC(N)=O)N[C@H](C(=O)N[C@@H](CCCCN)C(=O)O)CSC5C)CSC3C)C(C)C)CSC2C)N[C@@H](CC(C)C)C(=O)NC1=O` (stereo not given in full), 11.5 µg/mL (≈ 3.82 µM).
The same measure, in the same setting: in the case of `C=C1NC(=O)[C@H](CCC(=O)O)NC(=O)[C@H](NC(=O)[C@@H](N)CCCCN)CSC[C@@H](C(=O)N[C@H]2C(=O)N3CCC[C@H]3C(=O)NCC(=O)N[C@H](C(=O)N[C@H](C(=O)N[C@H]3C(=O)NCC(=O)N[C@@H](C)C(=O)N[C@@H](CC(C)C)C(=O)N[C@@H](CCC(N)=O)C(=O)N/C(=C\C)C(=O)N[C@H](C(=O)N[C@@H](Cc4ccccc4)C(=O)N[C@@H](CC(C)C)C(=O)N[C@@H](CCC(N)=O)C(=O)N[C@H]4C(=O)N[C@@H](CC(C)C)C(=O)N[C@H]5C(=O)N[C@@H](CS[C@H]4C)C(=O)N[C@@H](CC(N)=O)C(=O)N[C@H](C(=O)N[C@@H](CCCCN)C(=O)O)CS[C@H]5C)CS[C@H]3C)C(C)C)CS[C@H]2C)NC(=O)[C@H](CC(C)C)NC1=O` it was more than 50 µg/mL.
